Experimental data from patent US10111880B2, “Compounds for the treatment of diabetes and disease complications arising from same” (BEN-GURION UNIVERSITY OF THE NEGEV RESEARCH AND DEVELOPMENT …, priority 2013, dated 2018).

Assays:
Type in all cases: in vivo, mouse
[1] = test system: STZ-induced diabetic ICR mice; test: Blood glucose in STZ-induced diabetic ICR mice, long-term AGS treatment (5 months) with or without insulin; design: Blood Glucose At 101 day / Blood Glucose At 111 day: unit: mg/dL; conditions: for circulating glucose levels in diabetic animals: summary statement
Description: [0182]7 week-old female ICR mice were intra-peritoneally injected with STZ (40 mg\Kg) for 5 consecutive days. Non-diabetic mice received citrate buffer (pH 4.3, cold), which served as the vehicle controls for this study. AGS-500 (6 mg\Kg) was then administered subcutaneously every 2 days, for 5 months, on the first day after STZ administration. A further control group, where DMSO was administered in accordance with this regimen, was included. Mice were divided into the following 6 groups (10 mice per group except STZ only-5 mice): • STZ only • STZ+DMSO • Citrate+DMSO 1% every day • STZ+AGS-499 (6 mg/kg) injected every day S.C • STZ+AGS-500 (6 mg/kg) injected every day S.C • STZ+AGS-500 (6 mg/kg) injected every other day S.C Mice were weighed and blood glucose levels were measured using a free style glucometer. Food consumption was also measured 24 hours prior to STZ injection. The concentration of STZ to be injected was calculated. STZ at 40 mg/kg was injected ip for 5 consecutive days. AGS treatment was administered one day following the last STZ injection. The establishment of diabetes was validated by the assessment of blood glucose levels performed every 3 days (at the beginning) and once a week after 59 days from the initiation of the experiment. Blood glucose levels over 200 mg/dl (measured 3 consecutive times) indicated a diabetic state. At 80 days from the initiation of the experiments each group was divided to 2 subgroups which received either insulin (4 units/kg) or acetic acid (0.015%) both in HEPES buffer (pH 7.45) injected every 48 hours. Mice were sacrificed after 5 months from the initiation of the experiments. Blood glucose levels were monitored every 3 days. Ten weeks after the beginning of this study, each group was divided into 2 sub-groups, one of each also received insulin (4 U\Kg) every 2 days, except for the non-diabetic sub-groups. Acetic acid (1%) served as the vehicle control.

[2] = test system: insulin expressing beta islets; test: Immunofluorescence of pancreatic slices with anti-insulin antibody, insulin expressing beta islets in mice; conditions: for pancreatic beta cell mass: summary statement
Description: The light grey (originally red) stains insulin producing cells, and the darker grey (originally blue) is for DAPI staining. Density of insulin staining per area was measured using “Image J” software (D-E). The results are mean±S.E.; n=4. ***p<0.005. Magnification: ×10.

[3] = test system: STZ-induced diabetic ICR mice; test: Glucose tolerance test in STZ mice after short course (2 weeks) AGS treatment
Description: (§1) Eight weeks-old female ICR mice were injected intraperitoneally (IP) with Streptozotocin (STZ), at a dose of 40 mg/Kg, for 5 consecutive days. The following day and onward, mice were administered the AGS compounds (499 or 500, as indicated), at a dose of 6 mg/Kg, either subcutaneously or orally, every other day. Blood glucose levels were monitored daily.
(§2) After the establishment of diabetes (i.e. three consecutive blood glucose measurements of >200 mg/dL), mouse groups were further sub-divided into 2 sub-groups, one of each received insulin (gradual administration of 0.5-6 units/Kg, over a period of 2 weeks) subcutaneously, every other day. Blood glucose levels were monitored daily.
Glucose tolerance tests were also performed as follows: After two weeks mice were fasted for 12 hours, then injected with D-glucose (1.5 g/Kg, IP) and blood glucose levels were examined at 0, 10, 20, 30, 60, 90 and 120 minutes, in order to evaluate pancreatic function.

[4] = test system: STZ-induced diabetic ICR mice; test: Glucose Tolerance Test (GTT) in STZ diabetic mice after 2 and 5 months; conditions: daily
Description: Glucose Tolerance Test: Animals were fasted for 12 hr with free access to water. Blood-glucose levels after fast were measured and then the animals received an i.p. injection of glucose (1.5 g/kg). Blood samples were taken at several intervals (for the duration of 2 hr), when glucose levels above 200 mg/dl at 2 hr confirmed a diagnosis of diabetes.
[…] Mice were subjected to 12 hours fast (with water) weighed, blood glucose level was measured and Glucose at 1.5 gr/kg in no more than 100 μl was injected IP. Blood glucose levels were measured at 10, 20, 30, 60, 90 and 120 min after glucose injection. glucose tolerance test.

[5] = test system: STZ-induced diabetic ICR mice; test: Blood glucose over time in STZ mice, short course (2 weeks) AGS treatment with or without insulin
Description: as §1, §2

[6] = test system: STZ-induced diabetic mice, kidney glomeruli; test: Kidney histopathology (PAS staining of glomeruli) in STZ diabetic mice; conditions: summary statement
Description: Mice were treated as described hereinabove. Following one month of treatment mice were sacrificed and histolopathological examination of the kidney was performed.
FIG. 9 plots the evaluation of a number of parameters assessed via the histopathology analysis.

CCOCc1cc(C(C)(c2cc(COCC)c(O)c(COCC)c2)c2cc(COCC)c(O)c(COCC)c2)cc(COCC)c1O [AGS-499, 1,1,1,1-tris (4-hydroxy-3,5-methylene ethoxy-phenyl)-ethane]
% reduction in blood glucose level ([1]; after 12 hours fast, day 142, 6 mg/kg s.c. daily): 20% | Blood glucose level Average ([1]; after 12 hours fast, day 142, 6 mg/kg s.c. daily, in mg/dL (unit assumed)): 317 | % reduction In blood Glucose 101 day ([1]; no insulin, daily): 29% | Blood Glucose At 101 day ([1]; no insulin, daily): 500 | Blood Glucose At 111 day ([1]; no insulin, daily): 500 | reduction In blood Glucose 111 day ([1]; no insulin, daily): 17% | Blood Glucose At 101 day ([1]; with insulin (4 units/kg every 48 hours), AGS daily): 480 | % reduction In blood Glucose 101 day ([1]; with insulin, AGS daily): 32% | Blood Glucose At 111 day ([1]; with insulin, AGS daily): 400 | reduction In blood Glucose 111 day ([1]; with insulin, AGS daily): 34% | No of insulin expressing beta islets/mouse ([2]; no insulin, daily): 4.3 | increase in Insulin expressing Beta islets ([2]; no insulin, daily): 165% | No of insulin expressing beta islets/mouse ([2]; with insulin, AGS daily): 3.5 | increase in Insulin expressing Beta islets ([2]; with insulin, AGS daily): 135% | mean blood glucose levels in a glucose tolerance test ([3]; 6 mg/Kg subcutaneously or orally every other day, FIG. 11): reduced mean blood glucose levels | effect of adding insulin on circulating glucose levels in a glucose tolerance test ([3]; AGS subcutaneously (AGS500 also orally), FIG. 12): adding insulin did not appreciably lower the circulating levels | Improvement (fold) ([4]; GTT after 2 months): 3 fold | Fold of Improvement ([4]; GTT after 5 months): 3 fold | Time needed for the Pancreas to cope glucose load after 5 months ([4]; GTT): 30 min | Time needed for the Pancreas to cope with glucose load after 2 months ([4]; GTT): 30 min | circulating glucose levels over time ([5]; 6 mg/Kg every other day, short course (2 weeks), FIG. 13-1): lowering circulating glucose levels significantly | circulating glucose levels over time, combined with insulin therapy ([5]; short course, insulin 0.5-6 units/Kg, FIG. 13-2): synergistic contribution

CCOCc1cc(C(C)(c2cc(COCC)c(O)c(COCC)c2)c2cc(COCC)c(O)c(COCC)c2)cc(COCC)c1O [formula XIII]
circulating glucose levels in diabetic animals [1]: promoted reduction of circulating glucose levels | pancreatic beta cell mass [2]: increase of pancreatic beta cell mass | kidney damage in diabetic subjects [6]: reduced kidney damage

CC(c1cc(Br)c(O)c(Br)c1)(c1cc(Br)c(O)c(Br)c1)c1cc(Br)c(O)c(Br)c1 [formula XIV]
circulating glucose levels in diabetic animals [1]: promoted reduction of circulating glucose levels | pancreatic beta cell mass [2]: increase of pancreatic beta cell mass | kidney damage in diabetic subjects [6]: reduced kidney damage

CC(c1cc(CN2CCCC2)c(O)c(CN2CCCC2)c1)(c1cc(CN2CCCC2)c(O)c(CN2CCCC2)c1)c1cc(CN2CCCC2)c(O)c(CN2CCCC2)c1 [formula XI]
circulating glucose levels in diabetic animals [1]: promoted reduction of circulating glucose levels | pancreatic beta cell mass [2]: increase of pancreatic beta cell mass | kidney damage in diabetic subjects [6]: reduced kidney damage

insulin: insulin (4 units/kg) in HEPES buffer injected every 48 hours [reference compound]
circulating glucose levels in control groups ([1]; insulin 4 U/Kg every 2 days, STZ-induced diabetic mice, FIG. 2C): lowered circulating glucose levels in control groups | Blood Glucose At 101 day ([1]; insulin only (4 units/kg every 48 hours), STZ or STZ + vehicle groups): 700 | Blood Glucose At 111 day ([1]; insulin only, STZ or STZ + vehicle groups): 600 | No of insulin expressing beta islets/mouse ([2]; insulin alone (STZ, DMSO)): 3.25 | increase in Insulin expressing Beta islets ([2]; insulin alone (STZ, DMSO)): 125%
